# Where a name gives a salt, the structure may show the parent alone.
# How the values were obtained:
# human mPGES-1 = human mPGES-1 (Homo sapiens (Human), UniProt O14684); assay: mPGES-1 inhibitory activity test; assay type: biochemical; conditions: for inhibition at 0.01 µM: 10 nM test compound; for inhibition at 0.1 µM: 100 nM test compound; for IC50: microsomes of CHO-K1 cells expressing human mPGES-1, PGH2 1 μM, PGE2 by HTRF, read-out: mPGES-1 inhibition (IC50 nM)
# Method: mPGES-1 microsomal specimens were prepared by transiently transfecting CHO-K1 cells (DS Pharma Biomedical Co. Ltd) with a plasmid encoding human mPGES-1 cDNA using FuGENE 6 Transfection Reagent (Promega). The prepared mPGES-1 microsome specimens were diluted in potassium phosphate buffer of pH 7.4 comprising 2.5 mM reduced glutathione (Sigma-Aldrich), DMSO solution of a test compound or DMSO was added to a final concentration of 1% of DMSO, and then incubated at 4° C. for 20 minutes. The enzymatic reaction was then initiated by adding a solution of PGH2 (Cayman chemical) substrate of a final concentration 1 μM and incubated at 4° C. for 60 seconds. The reaction was terminated by adding a solution of ferric chloride (STREM CHEMICALS) and citric acid (Wako Pure Chemical Industries) salt to a final concentration of 5 mg/mL and 250 mM, respectively. The formed PGE2 was quantified using the HTRF kit (Cisbio International). Solutions without the test compound were used as positive controls, and solutions without the test compound and microsomal specimens were used as negative controls. 100% activity was defined as production of PGE2 in the positive control minus that in the negative control. The percentage inhibition of production of PGE2 at final concentrations of 10 nM and 100 nM of the test compound was then calculated, or IC50 values were determined using standard methods.
# human A549 cells = assay: Inhibition test of PGE2 production using human A549 cells; assay type: cell-based; conditions: IL-1β stimulated A549 cells, 24 h, PGE2 by HTRF, read-out: A549 cell inhibition of PGE2 production IC50
# Method: 100 μL of RPMI medium (Sigma) comprising 10% FBS and human A549 cells was seeded in a 96-well plate to […] cells per well, and incubated overnight. The medium was then removed and washed with phosphate-buffered saline, and added to a DMSO solution of the test compound or RPMI medium comprising 3% FBS with DMSO to a final concentration of 0.1% DMSO. After incubation for 60 minutes, IL-1P (5 ng/well, BioLegend) was added to the solution. After incubation at 37° C. for 24 h, PGE2 in the medium was quantified using the HTRF kit (Cisbio International) and PGF2a was also quantified using the EIA kit (Cayman chemical). Solutions without the test compound were used as positive controls, and solutions without the test compound and IL-1β were used as negative controls. 100% activity was defined as production of PGE2 and PGF2a in the positive control minus those in the negative control. IC50 values were then determined using standard methods.
# Sequence of human mPGES-1 (O14684 whole entry): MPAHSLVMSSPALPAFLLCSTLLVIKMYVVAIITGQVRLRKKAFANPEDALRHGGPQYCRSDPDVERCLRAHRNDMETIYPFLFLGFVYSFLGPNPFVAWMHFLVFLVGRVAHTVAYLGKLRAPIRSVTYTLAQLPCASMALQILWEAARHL
Compound,inhibition at 0.01 µM (human mPGES-1) [%],inhibition at 0.1 µM (human mPGES-1) [%],IC50 (human A549 cells) [nM],IC50 (human mPGES-1) [nM]
"CC(C)(C)C(=O)NCc1ccc(Cl)c(C(=O)Nc2cccc3c2cnn3Cc2cccc(C(F)(F)F)c2)c1 [Example 94, 2-Chloro-5-{[(2,2-dimethylpropanoyl)amino]methyl}-N-{1-[3-(trifluoromethyl)benzyl]-1H-indazol-4-yl}benzamide]",,,9.2,10
"O=C(NCc1ccc(Cl)c(C(=O)Nc2cccc3c2cnn3-c2ccc(C(F)(F)F)cc2)c1)c1ccco1 [Example 45, N-[4-chloro-3-({1-[4-(trifluoromethyl)phenyl]-1H-indazol-4-yl}carbamoyl)benzyl]furan-2-carboxamide]",,,37.6,1.2
"Cc1ccc(-n2ncc3c(NC(=O)c4cc(CNC(=O)C5(C(F)(F)F)CC5)ccc4Cl)cccc32)cc1Cl [Example 129, 2-Chloro-N-[1-(3-chloro-4-methylphenyl)-1H-indazol-4-yl]-5-[({[1-(trifluoromethyl)cyclopropyl]carbonyl}amino)methyl]benzamide]",67,,1.2,
"O=C(Nc1cccc2c1cnn2-c1cccc(OC(F)(F)F)c1)c1cc(CNC(=O)C2CCCC2)ccc1Cl [Example 122, 2-Chloro-5-{[(cyclopentylcarbonyl)amino]methyl}-N-{1-[3-(trifluoromethoxy)phenyl]-1H-indazol-4-yl}benzamide]",100,,2.9,
"CC(C)(C)C(=O)NCc1ccc(Cl)c(C(=O)Nc2cccc3c2cnn3C2CCCC2)c1 [Example 97, 2-Chloro-N-(1-cyclopentyl-1H-indazol-4-yl)-5-{[(2,2-dimethylpropanoyl)amino]methyl}benzamide]",,,5.3,0.7
"CC(C)(C)C(=O)NCc1ccc(Cl)c(C(=O)Nc2cccc3c2cnn3-c2ccc(OC(F)(F)F)cc2)c1 [Example 51, 2-Chloro-5-{[(2,2-dimethylpropanoyl)amino]methyl}-N-{1-[4-(trifluoromethoxy)phenyl]-1H-indazol-4-yl}benzamide]",,,112,5
"CC(C)(C)C(=O)NCc1ccc(Cl)c(C(=O)Nc2cccc3c2cnn3-c2cscn2)c1 [Example 83, 2-Chloro-5-{[(2,2-dimethylpropanoyl)amino]methyl}-N-[1-(1,3-thiazol-4-yl)-1H-indazol-4-yl]benzamide]",,,5.3,1.5
"O=C(CC1CCCC1)NCc1ccc(Cl)c(C(=O)Nc2cccc3c2cnn3-c2ccc(C(F)(F)F)cc2)c1 [Example 46, 2-Chloro-5-{[(cyclopentylacetyl)amino]methyl}-N-{1-[4-(trifluoromethyl)phenyl]-1H-indazol-4-yl}benzamide]",,,14.3,3
"Cc1ccc(-n2ncc3c(NC(=O)c4cc(CNC(=O)CC(C)(C)C)ccc4Cl)cccc32)cc1Cl [Example 127, 2-Chloro-N-[1-(3-chloro-4-methylphenyl)-1H-indazol-4-yl]-5-{[(3,3-dimethylbutanoyl)amino]methyl}benzamide]",64,,4.7,
"O=C(Nc1cccc2c1cnn2-c1cncc(C(F)(F)F)c1)c1cc(CNC(=O)C2CC2)ccc1Cl [Example 11, 2-Chloro-5-{[(cvclopropylcarbonyl)amino]methyl}-N-{1-[5-(trifluoromethyl)pyridin-3-yl]-1H-indazol-4-yl}benzamide]",,,3.4,2.9
"O=C(Nc1cccc2c1cnn2-c1ccc(Cl)cc1)c1cc(CNC(=O)C2(C(F)(F)F)CC2)ccc1Cl [Example 147, 2-Chloro-N-[1-(4-chlorophenyl)-1H-indazol-4-yl]-5-[({[1-(trifluoromethyl)cyclopropyl]carbonyl}amino)methyl]benzamide]",85,,0.9,
"CC(C)Oc1cccc(-n2ncc3c(NC(=O)c4cc(CNC(=O)C(C)(C)C)ccc4Cl)cccc32)c1 [Example 68, 2-Chloro-5-{[(2,2-dimethylpropanoyl)amino]methyl}-N-{1-[3-(propan-2-yloxy)phenyl]-1H-indazol-4-yl}benzamide]",,,2,6.7
"Cc1ccccc1-n1ncc2c(NC(=O)c3cc(CNC(=O)C4CC4)ccc3Cl)cccc21 [Example 9, 2-Chloro-5-{[(cyclopropylcarbonyl)amino]methyl}-N-[1-(2-methylphenyl)-1H-indazol-4-yl]benzamide]",,,4.1,2.2
"O=C(Nc1cccc2c1cnn2-c1cccc(OC(F)F)c1)c1cc(CNS(=O)(=O)C2CC2)ccc1Cl [Example 144, 2-Chloro-5-{[(cyclopropylsulfonyl)amino]methyl}-N-{1-[3-(difluoromethoxy)phenyl]-1H-indazol-4-yl}benzamide]",73,100,1.8,
"O=C(Nc1cccc2c1cnn2-c1cccnc1)c1cc(CNC(=O)C2CC2)ccc1Cl [Example 4, 2-Chloro-5-{[(cyclopropylcarbonyl)amino]methyl}-N-[1-(pyridin-3-yl)-1H-indazol-4-yl]benzamide hydrochloride]",,,,18.8
"CC#CC(=O)NCc1ccc(Cl)c(C(=O)Nc2cccc3c2cnn3-c2ccc(C(F)(F)F)cc2)c1 [Example 42, 5-[(2-Butynoylamino)methyl]-2-chloro-N-{1-[4-(trifluoromethyl)phenyl]-1H-indazol-4-yl}benzamide]",,,,391

# The next lines start with the values.
inhibition at 0.01 µM (human mPGES-1) [%],inhibition at 0.1 µM (human mPGES-1) [%],IC50 (human A549 cells) [nM],IC50 (human mPGES-1) [nM],Compound
55,100,9.1,,"COc1cc(-n2ncc3c(NC(=O)c4cc(CNC(=O)CC(C)(C)C)ccc4Cl)cccc32)ccn1 [Example 159, 2-Chloro-5-{[(3,3-dimethylbutanoyl)amino]methyl}-N-[1-(2-methoxypyridin-4-yl)-1H-indazol-4-yl]benzamide]"
72,,5.9,,"O=C(Nc1cccc2c1cnn2-c1ccc(Cl)cc1)c1cc(CNS(=O)(=O)C2CC2)ccc1Cl [Example 150, 2-Chloro-N-[1-(4-chlorophenyl)-1H-indazol-4-yl]-5-([(cyclopropylsulfonyl)amino]methyl)benzamide]"
77,,12.9,,"O=C(Nc1cccc2c1cnn2-c1nccs1)c1cc(CNC(=O)C2(C(F)(F)F)CC2)ccc1Cl [Example 228, 2-Chloro-N-[1-(1,3-thiazol-2-yl)-1H-indazol-4-yl]-5-[({[1-(trifluoromethyl)cyclopropyl]carbonyl}amino)methyl]benzamide]"
62,83,0.7,,"CC(C)(C)C(=O)NCc1ccc(C(F)(F)F)c(C(=O)Nc2cccc3c2cnn3-c2ccc(OC(F)(F)F)cc2)c1 [Example 194, 5-{[(2,2-Dimethylpropanoyl)amino]methyl}-N-{1-[4-(trifluoromethoxy)phenyl]-1H-indazol-4-yl}-2-(trifluoromethyl)benzamide]"
49,100,1.6,,"CC(C)(C)C(=O)NCc1ccc(Cl)c(C(=O)Nc2cccc3c2cnn3-c2ccc(F)cc2)c1Cl [Example 158, 2,6-Dichloro-3-{[(2,2-dimethylpropanoyl)amino]methyl}-N-[1-(4-fluorophenyl)-1H-indazol-4-yl]benzamide]"
75,,7.7,,"CC(C)(C)C(=O)NCc1ccc(C(F)(F)F)c(C(=O)Nc2cccc3c2cnn3C2CC2)c1 [Example 285, 5-{[(2,2-Dimethylpropanoyl)amino]methyl}-N-(1-cyclopropyl-1H-indazol-4-yl)-2-(trifluoromethyl)benzamide]"
100,,14.3,,"CC(C)(C)CC(=O)NCc1ccc(Cl)c(C(=O)Nc2cccc3c2cnn3-c2ccc(F)cc2)c1 [Example 151, 2-Chloro-5-{[(3,3-dimethylbutanoyl)amino]methyl}-N-[1-(4-fluorophenyl)-1H-indazol-4-yl]benzamide]"
83,,< 1,,"O=C(Nc1cccc2c1cnn2-c1cccc(C(F)(F)F)c1)c1cc(CNS(=O)(=O)C2CC2)ccc1Cl [Example 224, 2-Chloro-5-{[(cyclopropylsulfonyl)amino]methyl}-N-{1-[3-(trifluoromethyl)phenyl]-1H-indazol-4-yl}benzamide]"
59,79,20.2,,"CC(C)n1ncc2c(NC(=O)c3cc(CNC(=O)C(C)(C)C)ccc3C(F)(F)F)cccc21 [Example 202, 5-{[(2,2-Dimethylpropanoyl)amino]methyl}-N-[1-(propan-2-yl)-1H-indazol-4-yl]-2-(trifluoromethyl)benzamide]"

# From US20250059172A1, “INDAZOLE COMPOUND AND PHARMACEUTICAL” (NIPPON SHINYAKU CO., LTD., priority 2021, published 2025)
